# According to patent US20240317744A1, “Bicyclic Ureas As Kinase Inhibitors” (Incyte Corporation, priority 2023, published 2024):
# Columns and labels:
# [1] = target: T1, pseudo-kinase domain (JH2, amino-acids 536-812) of human V617F mutant JAK2 (Homo sapiens, UniProt O60674, F794H/V617F/W659A/W777A); assay: JAK2 LanthaScreen JH2-V617F Binding Assay; conditions: JAK2 JH2-V617F 0.26 nM, 50 nM tracer, 1 hour at 25° C.; read-out: JH2 BIND V617F
# T1 construct: pseudo-kinase domain (JH2, amino-acids 536-812 with 3 surface mutations W659A, W777A, F794H); His (C); purchased BPS Bioscience 79498; host or cells: baculovirus expression system
# T1 sequence (O60674 536-812 V617F/W659A/W777A/F794H): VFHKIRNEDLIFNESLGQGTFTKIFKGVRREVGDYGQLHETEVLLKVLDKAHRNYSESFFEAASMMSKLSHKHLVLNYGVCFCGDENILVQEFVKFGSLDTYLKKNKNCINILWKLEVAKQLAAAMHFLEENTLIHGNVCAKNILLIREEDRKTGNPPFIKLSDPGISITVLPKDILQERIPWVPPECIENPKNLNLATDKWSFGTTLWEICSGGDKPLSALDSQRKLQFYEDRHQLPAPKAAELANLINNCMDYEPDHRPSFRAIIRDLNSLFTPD
# Description: Example C. JAK2 LanthaScreen JH2-V617F Binding Assay
# JAK2 JH2-V617F binding assay utilizes pseudo-kinase domain (JH2, amino-acids 536-812 with 3 surface mutations W659A, W777A, F794H) of human V617F mutant JAK2 expressed as C-terminal His-Avi-tagged, biotinylated protein in a baculovirus expression system (BPS Bioscience, Catalog #79498). The assay was conducted in black 384-well polystyrene plates in a final reaction volume of 20 μL. JAK2 JH2-V617F (0.26 nM) was incubated with compounds (100 nL serially diluted in DMSO) in the presence of 50 nM Fluorescent JAK2-JH2 Tracer (MedChem Express Catalog #HY-102055) and 0.25 nM Streptavidin-Tb cryptate (Cisbio Part #610SATLB) in assay buffer (50 mM Tris, pH=7.5, 10 mM MgCl2, 0.01% Brij-35, 0.1% BSA, 1 mM EGTA, 5% Glycerol and 5 mM DTT). Non-specific binding was accessed in the presence of 2 mM ATP. After incubation for 1 hour at 25° C., LanthaScreen signals were read on a PHERAstar FS plate reader (BMG LABTECH). Data was analyzed with IDBS XLfit and GraphPad Prism 5.0 software using a four parameter dose response curve to determine IC50 for each compound.
# [2] = target: catalytic domain (JH1, amino acids 808-1132) of human JAK2 (Homo sapiens, UniProt O60674); assay: JAK2 HTRF Enzyme Activity Assay; assay type: biochemical; conditions: ATP 30 µM, 60 minutes at 25° C.; read-out: V617F ENZ 30 UM
# Sequence of catalytic domain (JH1, amino acids 808-1132) of human JAK2 (O60674 808-1132 limits assumed): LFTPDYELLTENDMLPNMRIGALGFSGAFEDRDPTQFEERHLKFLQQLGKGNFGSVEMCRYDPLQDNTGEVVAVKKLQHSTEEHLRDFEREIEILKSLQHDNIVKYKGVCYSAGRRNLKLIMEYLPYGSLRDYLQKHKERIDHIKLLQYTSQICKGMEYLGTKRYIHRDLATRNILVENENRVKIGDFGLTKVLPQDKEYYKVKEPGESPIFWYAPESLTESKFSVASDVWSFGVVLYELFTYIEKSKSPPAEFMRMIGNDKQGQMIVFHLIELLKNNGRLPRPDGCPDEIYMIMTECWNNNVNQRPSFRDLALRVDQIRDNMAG
SMILES,IC50 [1] [nM],IC50 [2] [nM]
"[2H]C([2H])([2H])n1c(=O)n([C@@H]2CC[C@](C)(NC(C)=O)C2)c2cc(Nc3cc(C(C)(C)O)cc(-c4cnc(OC(C)C)s4)n3)ncc21 [Example 151, N-((1S,3R)-3-(6-((4-(2-hydroxypropan-2-yl)-6-(2-isopropoxythiazol-5-yl)pyridin-2-yl)amino)-3-(methyl-d3)-2-oxo-2,3-dihydro-1H-imidazo[4,5-c]pyridin-1-yl)-1-methylcyclopentyl)acetamide]",≤ 10,> 1000
"[2H]C([2H])([2H])n1c(=O)n([C@@H]2CC[C@](C)(NC(C)=O)C2)c2cc(Nc3cc(C(C)(C)O)cc(-c4cnc(OC)s4)n3)ncc21 [Example 152, N-((1S,3R)-3-(6-((4-(2-Hydroxypropan-2-yl)-6-(2-methoxythiazol-5-yl)pyridin-2-yl)amino)-3-(methyl-d3)-2-oxo-2,3-dihydro-1H-imidazo[4,5-c]pyridin-1-yl)-1-methylcyclopentyl)acetamide]",≤ 10,> 1000
"[2H]C([2H])([2H])n1c(=O)n([C@@H]2CC[C@](C)(NC(C)=O)C2)c2cc(Nc3cc(C(C)(C)O)cc(-c4cnc(OCC)s4)n3)ncc21 [Example 153, N-((1S,3R)-3-(6-((6-(2-Ethoxythiazol-5-yl)-4-(2-hydroxypropan-2-yl)pyridin-2-yl)amino)-3-(methyl-d3)-2-oxo-2,3-dihydro-1H-imidazo[4,5-c]pyridin-1-yl)-1-methylcyclopentyl)acetamide]",≤ 10,> 1000
"[2H]C([2H])([2H])n1c(=O)n([C@H]2C[C@H](NC(=O)OC)[C@@H](O)C2)c2cc(Nc3cc(C(C)(C)O)cc(-c4ncc(C(F)(F)F)s4)n3)ncc21 [Example 155, Methyl ((1S,2S,4S)-2-hydroxy-4-(6-((4-(2-hydroxypropan-2-yl)-6-(5-(trifluoromethyl)thiazol-2-yl)pyridin-2-yl)amino)-3-(methyl-d3)-2-oxo-2,3-dihydro-1H-imidazo[4,5-c]pyridin-1-yl)cyclopentyl)carbamate]",≤ 10,> 1000
"[2H]C([2H])([2H])n1c(=O)n([C@@H]2CC[C@@]([2H])(NC(=O)OC)C2)c2cc(Nc3cc(C(C)(C)O)cc(-c4ncc(C(F)(F)F)s4)n3)ncc21 [Example 158, Methyl ((1R,3R)-3-(6-((4-(2-hydroxypropan-2-yl)-6-(5-(trifluoromethyl)thiazol-2-yl)pyridin-2-yl)amino)-3-(methyl-d3)-2-oxo-2,3-dihydro-1H-imidazo[4,5-c]pyridin-1-yl)cyclopentyl-1-d)carbamate]",≤ 10,> 1000
"[2H]C([2H])([2H])n1c(=O)n([C@@H]2CC[C@]([2H])(NC(=O)OC)C2)c2cc(Nc3cc(C(C)(C)O)cc(-c4ncc(C(F)(F)F)s4)n3)ncc21 [Example 159, Methyl ((1S,3R)-3-(6-((4-(2-hydroxypropan-2-yl)-6-(5-(trifluoromethyl)thiazol-2-yl)pyridin-2-yl)amino)-3-(methyl-d3)-2-oxo-2,3-dihydro-1H-imidazo[4,5-c]pyridin-1-yl)cyclopentyl-1-d)carbamate]",≤ 10,> 1000
"[2H]C([2H])([2H])n1c(=O)n([C@@H]2CC[C@]([2H])(NC(=O)OC)C2)c2cc(Nc3cc(-c4cnccc4C(F)(F)F)c4nc(C)c(-c5cnn(C(F)F)c5)n4n3)ncc21 [Example 160, Methyl ((1S,3R)-3-(6-((3-(1-(difluoromethyl)-1H-pyrazol-4-yl)-2-methyl-8-(4-(trifluoromethyl)pyridin-3-yl)imidazo[1,2-b]pyridazin-6-yl)amino)-3-(methyl-d3)-2-oxo-2,3-dihydro-1H-imidazo[4,5-c]pyridin-1-yl)cyclopentyl-1-d)carbamate]",≤ 10,> 1000
"[2H]C([2H])([2H])n1c(=O)n([C@@H]2CC[C@@H](NC(=O)OC)C2)c2cc(Nc3cc(C4CCOCC4)cc(-c4ncc(C(C)(C)O)s4)n3)ncc21 [Example 161, Methyl ((1R,3R)-3-(6-((6-(5-(2-hydroxypropan-2-yl)thiazol-2-yl)-4-(tetrahydro-2H-pyran-4-yl)pyridin-2-yl)amino)-3-(methyl-d3)-2-oxo-2,3-dihydro-1H-imidazo[4,5-c]pyridin-1-yl)cyclopentyl)carbamate]",≤ 10,> 1000
"[2H]C([2H])([2H])n1c(=O)n([C@@H]2CC[C@@]([2H])(NC(=O)OC)C2)c2cc(Nc3cc(C4CCOCC4)cc(-c4ncc(C(C)(C)O)s4)n3)ncc21 [Example 162, Methyl ((1R,3R)-3-(6-((6-(5-(2-hydroxypropan-2-yl)thiazol-2-yl)-4-(tetrahydro-2H-pyran-4-yl)pyridin-2-yl)amino)-3-(methyl-d3)-2-oxo-2,3-dihydro-1H-imidazo[4,5-c]pyridin-1-yl)cyclopentyl-1-d)carbamate]",≤ 10,> 1000
"[2H]C([2H])([2H])n1c(=O)n([C@@H]2CC[C@]([2H])(NC(=O)OC)C2)c2cc(Nc3cc(C4CCOCC4)cc(-c4ncc(C(C)(C)O)s4)n3)ncc21 [Example 163, Methyl ((1S,3R)-3-(6-((6-(5-(2-hydroxypropan-2-yl)thiazol-2-yl)-4-(tetrahydro-2H-pyran-4-yl)pyridin-2-yl)amino)-3-(methyl-d3)-2-oxo-2,3-dihydro-1H-imidazo[4,5-c]pyridin-1-yl)cyclopentyl-1-d)carbamate]",≤ 10,500 to 1000
"[2H]C([2H])([2H])n1c(=O)n([C@@H]2CC[C@@]([2H])(NC(=O)OC)C2)c2cc(Nc3cc(-c4cnccc4C(F)(F)F)cc(-c4ncc(C(C)(C)O)s4)n3)ncc21 [Example 164, Methyl ((1R,3R)-3-(6-((6′-(5-(2-hydroxypropan-2-yl)thiazol-2-yl)-4-(trifluoromethyl)-[3,4′-bipyridin]-2′-yl)amino)-3-(methyl-d3)-2-oxo-2,3-dihydro-1H-imidazo[4,5-c]pyridin-1-yl)cyclopentyl-1-d)carbamate]",≤ 10,> 1000
"[2H]C([2H])([2H])n1c(=O)n([C@@H]2CC[C@]([2H])(NC(=O)OC)C2)c2cc(Nc3cc(-c4cnccc4C(F)(F)F)cc(-c4ncc(C(C)(C)O)s4)n3)ncc21 [Example 165, Methyl ((1S,3R)-3-(6-((6′-(5-(2-hydroxypropan-2-yl)thiazol-2-yl)-4-(trifluoromethyl)-[3,4′-bipyridin]-2′-yl)amino)-3-(methyl-d3)-2-oxo-2,3-dihydro-1H-imidazo[4,5-c]pyridin-1-yl)cyclopentyl-1-d)carbamate]",≤ 10,> 1000
"[2H]C([2H])([2H])n1c(=O)n([C@@H]2CC[C@@]([2H])(NC(=O)OC)C2)c2cc(Nc3cc(C4CCN(C)CC4)cc(-c4ncc(C(C)(C)O)s4)n3)ncc21 [Example 166, Methyl ((1R,3R)-3-(6-((6-(5-(2-hydroxypropan-2-yl)thiazol-2-yl)-4-(1-methylpiperidin-4-yl)pyridin-2-yl)amino)-3-(methyl-d3)-2-oxo-2,3-dihydro-1H-imidazo[4,5-c]pyridin-1-yl)cyclopentyl-1-d)carbamate]",≤ 10,> 1000
"[2H]C([2H])([2H])n1c(=O)n([C@@H]2CC[C@@]([2H])(NC(=O)OC)C2)c2cc(Nc3cc(-c4cccnc4C(F)(F)F)cc(-c4ncc(C(C)(C)O)s4)n3)ncc21 [Example 167, Methyl ((1R,3R)-3-(6-((6′-(5-(2-hydroxypropan-2-yl)thiazol-2-yl)-2-(trifluoromethyl)-[3,4′-bipyridin]-2′-yl)amino)-3-(methyl-d3)-2-oxo-2,3-dihydro-1H-imidazo[4,5-c]pyridin-1-yl)cyclopentyl-1-d)carbamate]",≤ 10,> 1000
"[2H]C([2H])([2H])n1c(=O)n([C@@H]2CC[C@](C)(NC(C)=O)C2)c2cc(Nc3cc(-c4cnccc4C(F)(F)F)c4nc(C)c(-c5cnn(C(F)F)c5)n4n3)ncc21 [Example 168, N-((1S,3R)-3-(6-((3-(1-(Difluoromethyl)-1H-pyrazol-4-yl)-2-methyl-8-(4-(trifluoromethyl)pyridin-3-yl)imidazo[1,2-b]pyridazin-6-yl)amino)-3-(methyl-d3)-2-oxo-2,3-dihydro-1H-imidazo[4,5-c]pyridin-1-yl)-1-methylcyclopentyl)acetamide]",≤ 10,> 1000
"[2H]C([2H])([2H])n1c(=O)n([C@@H]2CC[C@@]([2H])(NC(=O)OC)C2)c2cc(Nc3cc(C(C)(C)O)c4nc(C)n(-c5cnn(C(F)F)c5)c4n3)ncc21 [Example 169, Methyl ((1R,3R)-3-(6-((3-(1-(difluoromethyl)-1H-pyrazol-4-yl)-7-(2-hydroxypropan-2-yl)-2-methyl-3H-imidazo[4,5-b]pyridin-5-yl)amino)-3-(methyl-d3)-2-oxo-2,3-dihydro-1H-imidazo[4,5-c]pyridin-1-yl)cyclopentyl-1-d)carbamate]",≤ 10,> 1000
